From patent US20020010333A1, “Use of xanthine derivatives for reducing the pathological hyperreactivity of eosinophilic granulocytes, novel xanthine compounds and process for their preparation” (Hoechst Aktiengesellschaft, priority 1994, published 2002) come the findings set out here.

In brackets after ≈: the same amount, converted by molar mass. Where two headings read alike, the source gives them in different places.

Series [1] relates to PAF-induced contraction of isolated lung strips. As to the kind of experiment: Anticonstrictive action against PAF-induced contraction of isolated lung strips. The arrangement: species or system albino guinea pigs. Conditions: Cavia porcellus; guinea pig lung strips, PAF 10^−9 g/ml, n=6; read-out: Anticonstrictive action (IC50) PAT lung. From the text: (§1) The inhibitory action of the compounds of formula I on the proinflammatory early-phase mediators histamine, PAF and leukotriene D4 (LTD4) was investigated on isolated segments of the respiratory tract organs of albino guinea pigs, the inhibition of the contractions which can be caused by these mediators being used as measurement parameters.
(§2) To carry out the experiment, freshly prepared organs of male animals were used in each case. The trachea was divided into its rings, of which 5 tracheal rings in each case were linked with silk thread to give a chain, suspended under a tension of 0.5 g in an organ bath containing Tyrode solution at 37° C. through which was bubbled 95% O2/5% CO2, and contracted by addition of histamine dihydrochloride (bath concentration: 3×10^−7 g/ml) in the absence (control experiment) or in the presence of the test substances.
(§3) The lungs were cut longitudinally into 2 to 3 strips, using which the process as described above was carried out. The tension, however, was 1 g and the contraction was induced by PAF or LTD4 at a bath concentration of 10^−9 or 10^−8 g/mi.
(§4) Each experiment comprised the parallel investigation of 6 organ preparations (n=6).
(§5) The assessment of the action of the preparation was carried out with the aid of the IC50 values, which represent that concentration in μg/ml at which the organ contraction produced in the control experiment was reduced by half.

Series [2] concerns eosinophilic granulocytes. The series is described as follows: Antigen-induced late-phase reaction: ex vivo chemotactic migration of eosinophils (Boyden chamber technique). The class given is in vivo, guinea pigs. As to conditions: eosinophils of animals treated with 80 mg/kg daily oral, compared with control animals, p<0.05. As to the method:
(§6) In a chronic long-term experiment on guinea pigs provoked with human serum antigen, the inhibitory action of the compounds of the formula I on the pathologically raised chemotactic infiltration of eosinophilic granulocytes into the peritoneal space (in vivo) and their functional state (ex vivo) was investigated. The animals of the preparation group (n=6) were treated with the test substance at a daily oral dose of 80 mg/kg for 15 weeks, while the animals of the control group (n=6) received the vehicle (carboxymethylcellulose). After the third week of treatment, all 12 animals were provoked by weekly intraperitoneal administration of 1 ml of human serum antigen and 48 hours later in each case subjected to a peritoneal lavage with 50 ml of 5% strength glucose solution in which the number of infiltrated eosinophils and, after their isolation on discontinuous Percoll density gradients (purity >95%; V ability >98%), the reactivity to PAF and C5a were determined in a comparison between the two animal collectives by flow cytometry with the aid of actin polymerization and by means of the Boyden chamber technique.

Series [3] relates to eosinophilic granulocytes. As to the kind of experiment: Antigen-induced late-phase reaction: ex vivo actin polymerization of eosinophils (flow cytometry). As to conditions: PAF 10 nM, eosinophils of animals treated with 80 mg/kg daily oral. The class given is in vivo, guinea pigs. How it is done:
as §6

Series [4] deals with histamine-induced contraction of isolated trachea. The series is described as follows: Anticonstrictive action against histamine-induced contraction of isolated tracheal ring chains. Further details: species or system albino guinea pigs. As to conditions: Cavia porcellus; guinea pig tracheal chain, histamine dihydrochloride 3×10^−7 g/ml, n=6.
Excerpt: as §1, §2, §4, §5

For series [5], the system named is eosinophilic granulocytes infiltrating the peritoneal space. As to the kind of experiment: Antigen-induced late-phase reaction: infiltration of eosinophilic granulocytes into the peritoneal space (in vivo). Further details: species or system guinea pigs. As to conditions: 80 mg/kg daily oral for 15 weeks, human serum antigen i.p. weekly, peritoneal lavage 48 hours later; control animals 42.2 5.8%; p<0.01. As to the method: as §6

Series [6] has as its system LTD4-induced contraction of isolated lung strips. As to the kind of experiment: Anticonstrictive action against LTD4-induced contraction of isolated lung strips. Further details: species or system albino guinea pigs. As to conditions: Cavia porcellus; guinea pig lung strips, LTD4 10^−8 g/ml, n=6.
Excerpt: as §1, §2, §3, §4, §5

In series [7] the test system is ovalbumin-induced asthma attack. As to the kind of experiment: Inhibition of the antigen-induced early-phase reaction (ovalbumin-induced bronchospasm, Konzett-Rössler) in the presensitized guinea pig. The class given is in vivo, albino guinea pigs. As to conditions: Cavia porcellus, iv, protected = asthma reaction reduced by at least 40% relative to control; for responders at 10 mg/kg: 10 mg/kg i.v. 15 minutes before antigen; for responders at 25 mg/kg: 25 mg/kg i.v. 15 minutes before antigen. As to the method:
Albino guinea pigs of both sexes having a body weight of 180 to 220 g were sensitized on two successive days by subcutaneous administration of 1 mg of ovalbumin (0.1% strength dissolved in physiological saline solution) in each case. 20 days later, the experiment was carried out according to the method of Konzett and […] (Arch. exp. Path. und Pharmak. (1940) 195: 75). For this purpose, the animals were anesthetized with pentobarbital, artificially ventilated, treated with alcuronium chloride to exclude spontaneous respiration and divided into groups of 6 animals in each case. By means of intravenous administration of ovalbumin as an antigen in a dose of 1 mg/kg, a long-lasting asthma attack was induced as a result of an acute bronchospasm induced by mediators in the course of the asthmatic early reaction, the intensity of which was quantified by means of the contraction height in the thoracogram. The test preparations were likewise administered intravenously 15 minutes before antigen provocation. Instead of this, the animals of the control group received pure 0.9% strength saline solution. To assess the action of the preparation, the number of animals of the respective collective in which the asthma reaction was reduced by at least 40% relative to the control animals was determined.

The test system of series [8] is human eosinophilic granulocytes. The series is described as follows: Inhibition of eosinophil activation by late-phase mediators, lucigenin-dependent chemiluminescence. Conditions: 0.5 h, test substance 100 μM, human eosinophils, CL over 30 minutes. In kind it is cell-based. The text has this: The inhibitory action of the xanthines of formula I on the activation ability of human eosinophilic granulocytes by means of the late-phase mediators IL-5, GM-CSF, C5a and PAF was investigated with the aid of the lucigenin-dependent chemiluminescence (CL) reaction.
For this purpose, purified eosinophils were obtained from venous human blood according to known processes (Arch. Dermatol. Res. (1987) 279: 470-477 and J. Invest. Dermatol. (1986) 86: 523-528), pretreated with the test substances at the concentration 100 μM or with pure water (positive control (A)) at 37° C. for 10 minutes and then activated with IL-5 (10^2 U/ml), GM-CSF (10^3 U/ml), C5a (10^−7 M) or PAF (10^−6 M) or treated with water for the determination of the basal activity (B). The CL reaction was monitored over the course of 30 minutes measuring at 37° C. The residual activity of the cells pretreated with the test substances was calculated according to the following formula in percent of that of the positive control: [formula]
CLX describes the activity after stimulation of the cells pretreated with the xanthines,
CLA describes the activity after stimulation of the cells pretreated with water and
CLB describes the basal activity of unstimulated cells pretreated with water.

[9] abbreviates: read-out: Protected animals after i.v. administration, % proportion.
Setting [10] is: read-out: Protected animals after i.v. administration, number (converted).

For orientation: IC50 means the concentration that gives 50% inhibition. The term melting point denotes the temperature, or range, at which the solid turns liquid. For the molecule `Cn1c(=O)n(CCCCC(C)(C)O)c(=O)c2[nH]cnc21` [Example 7, 1-(5-Hydroxy-5-methylhexyl)-3-methylxanthine], the melting point was 192 to 193 °C. The IC50 in [1] lay within 10 to 30 µg/mL (≈ 35.7 to 107 µM). In addition, in [2], the “Chemotactic migration of eosinophils induced by C5a” value is “significant reduction” and the “Chemotactic migration of eosinophils induced by PAF” value is “significant reduction”. The “Initial phase (<10s) of actin polymerization induced by PAF” value in [3] is given as “significantly decreased”. Besides, the IC50 in [4] was 10 to 30 µg/mL (≈ 35.7 to 107 µM). Also, in [5], the “Number of eosinophils which migrated into the peritoneal space” value stood at 34.9%. The IC50 in series [6] was in the range of 10 to 30 µg/mL (≈ 35.7 to 107 µM). Further, in series [7] (setting [9]), the responders at 10 mg/kg stood at 33% and the responders at 25 mg/kg was 80%. In [7] (setting [10]), the responders at 10 mg/kg was 33.3% and the responders at 25 mg/kg is 80%. The activity at 100 µM in [8] (C5a 10^−7 M, read-out: Residual activity in % of the positive control A after stimulation with C5a) was 19%. Further, the activity at 100 µM in series [8] (GM-CSF 10^3 U/ml, read-out: Residual activity in % of the positive control A after stimulation with GM-CSF) stood at 63%. Moreover, the activity at 100 µM in [8] (IL-5 10^2 U/ml, read-out: Residual activity in % of the positive control A after stimulation with IL-5) turned out to be 42%. In addition, the activity at 100 µM in [8] (PAF 10^−6 M, read-out: Residual activity in % of the positive control A after stimulation with PAF) was 17%.
